Where a name gives a salt, the structure may show the parent alone.
The compounds below were run against T1, human HSD-1 (recombinant HSD-1) (Homo sapiens, UniProt P28845) (assay: HSD-1 activity inhibitory action in vitro (SPA, conversion of cortisone to cortisol)). Details: recombinant human HSD-1 expressed using baculovirus system; 10 nM 3H cortisone, 500 μM NADPH; room temperature 90 to 120 min; read-out: hHSD1 (IC50 (nM)).
T1 construct: made in house
Assay type: biochemical

T1 sequence (P28845 whole entry): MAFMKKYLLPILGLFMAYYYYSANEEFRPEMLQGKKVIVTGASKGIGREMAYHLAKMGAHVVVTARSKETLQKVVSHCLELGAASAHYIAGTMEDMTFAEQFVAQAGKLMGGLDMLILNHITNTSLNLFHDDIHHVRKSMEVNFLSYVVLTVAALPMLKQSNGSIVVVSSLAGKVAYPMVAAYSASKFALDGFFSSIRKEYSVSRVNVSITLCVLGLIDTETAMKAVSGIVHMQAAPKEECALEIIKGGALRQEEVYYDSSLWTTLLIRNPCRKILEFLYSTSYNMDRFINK

IC50, < 30 nM:
O=C(O)c1ccc(N2CCC(n3ncc(C(=O)N4CCC(c5ccccc5C(F)(F)F)C4)c3C3CC3)CC2)cc1 (centres unmarked) [Example 113, 4-(4-{5-cyclopropyl-4-[3-(2-trifluoromethylphenyl)pyrrolidine-1-carbonyl]pyrazol-1-yl}piperidin-1-yl)benzoic acid]
O=C(c1cnn(C2CCN(C(=O)N3CCC(F)(F)C3)CC2)c1C1CC1)N1CC[C@@H](c2ccccc2C(F)(F)F)C1 [Example 19, 1-{5-cyclopropyl-1-[1-(3,3-difluoropyrrolidine-1-carbonyl)piperidin-4-yl]-1H-pyrazole-4-carbonyl}-[(S)-3-(2-trifluoromethylphenyl)]pyrrolidine]
O=C(N[C@H](CO)c1ccccc1)N1CCC(n2ncc(C(=O)N3CC[C@@H](c4ccccc4C(F)(F)F)C3)c2C2CC2)CC1 [Example 51, 1-(5-cyclopropyl-1-{1-[(S)-2-hydroxy-1-phenylethylcarbamoyl]piperidin-4-yl}-1H-pyrazole-4-carbonyl)-[(S)-3-(2-trifluoromethylphenyl)]pyrrolidine]
CC(=O)Nc1ccc(N2CCC(n3ncc(C(=O)N4CCC(c5ccccc5C(F)(F)F)C4)c3C3CC3)CC2)cc1 (centres unmarked) [Example 182, 1-{1-[1-(4-acetylaminophenyl)piperidin-4-yl]-5-cyclopropyl-1H-pyrazole-4-carbonyl}-3-(2-trifluoromethylphenyl)pyrrolidine]
O=C(Nc1ccccc1F)N1CCC(n2ncc(C(=O)N3CC[C@@H](c4ccccc4C(F)(F)F)C3)c2C2CC2)CC1 [Example 124, 1-{5-cyclopropyl-1-[1-(2-fluorophenylcarbamoyl)piperidin-4-yl]-1H-pyrazole-4-carbonyl}-[(S)-3-(2-trifluoromethylphenyl)]pyrrolidine]
NC(=O)c1ccc(N2CCC(n3ncc(C(=O)N4CCC(c5ccccc5C(F)(F)F)C4)c3C3CC3)CC2)nc1 (centres unmarked) [Example 167, 1-{1-[1-(5-carbamoyl-pyridin-2-yl)piperidin-4-yl]-5-cyclopropyl-1H-pyrazole-4-carbonyl}-3-(2-trifluoromethylphenyl)pyrrolidine]
CC(=O)N[C@H](C(=O)N1CCC(n2ncc(C(=O)N3CC[C@@H](c4ccccc4C(F)(F)F)C3)c2C2CC2)CC1)C(C)C [Example 72, 1-(1-{1-[(S)-2-acetylamino-3-methylbutyryl]piperidin-4-yl}-5-cyclopropyl-1H-pyrazole-4-carbonyl)-[(S)-3-(2-trifluoromethylphenyl)]pyrrolidine]
O=C1CC[C@@H](C(=O)N2CCC(n3ncc(C(=O)N4CC[C@@H](c5ccccc5C(F)(F)F)C4)c3C3CC3)CC2)N1 [Example 74, 1-(5-cyclopropyl-1-{1-[(S)-5-oxopyrrolidine-2-carbonyl]piperidin-4-yl}-1H-pyrazole-4-carbonyl)-[(S)-3-(2-trifluoromethylphenyl)]pyrrolidine]
CC1(c2c(C(=O)N3CCC(c4cccnc4)C3)cnn2C2CCN(C(=O)N3CCOc4ccccc43)CC2)CC1 (centres unmarked) [Example 149]
N#Cc1ccccc1C1CCN(C(=O)c2cnn(C3CCN(C(=O)Nc4ccccc4F)CC3)c2C2CC2)C1 (centres unmarked) [Example 184, 3-(2-cyanophenyl)-1-{5-cyclopropyl-1-[1-(2-fluorophenylcarbamoyl)piperidin-4-yl]-1H-pyrazole-4-carbonyl}pyrrolidine]
O=C(c1cnn(C2CCN(C(=O)N3CC(CO)C3)CC2)c1C1CC1)N1CC[C@@H](c2ccccc2C(F)(F)F)C1 [Example 28, 1-{5-cyclopropyl-1-[1-(3-hydroxymethylazetidine-1-carbonyl)piperidin-4-yl]-1H-pyrazole-4-carbonyl}-[(S)-3-(2-trifluoromethylphenyl)]pyrrolidine]
N#C/N=C(\N)N1CCC(n2ncc(C(=O)N3CC[C@@H](c4ccccc4C(F)(F)F)C3)c2C2CC2)CC1 [Example 112, 1-{1-[1-(N-cyanocarbamimidoyl)piperidin-4-yl]-5-cyclopropyl-1H-pyrazole-4-carbonyl}-[(S)-3-(2-trifluoromethylphenyl)]pyrrolidine]
CC1(c2c(C(=O)N3CCC(c4cccnc4)C3)cnn2C2CCN(C(=O)N3CCc4ccccc43)CC2)CC1 (centres unmarked) [Example 148, 1-{1-[1-(2,3-dihydroindole-1-carbonyl)piperidin-4-yl]-5-(1-methylcyclopropyl)-1H-pyrazole-4-carbonyl}-3-(pyridin-3-yl)pyrrolidine]
NC(=O)CCC(=O)N1CCC(n2ncc(C(=O)N3CC[C@@H](c4ccccc4C(F)(F)F)C3)c2C2CC2)CC1 [Example 93, 1-{1-[1-(3-carbamoylpropionyl)piperidin-4-yl]-5-cyclopropyl-1H-pyrazole-4-carbonyl}-[(S)-3-(2-trifluoromethylphenyl)]pyrrolidine]
CS(=O)(=O)NCC(=O)N1CCC(n2ncc(C(=O)N3CC[C@@H](c4ccccc4C(F)(F)F)C3)c2C2CC2)CC1 [Example 90, 1-{5-cyclopropyl-1-[1-(2-methanesulfonylaminoacetyl)piperidin-4-yl]-1H-pyrazole-4-carbonyl}-[(S)-3-(2-trifluoromethylphenyl)]pyrrolidine]
CC(C)(N)C(=O)N1CCC(n2ncc(C(=O)N3CC[C@@H](c4ccccc4C(F)(F)F)C3)c2C2CC2)CC1 [Example 79, 1-{1-[1-(2-amino-2-methylpropionyl)piperidin-4-yl]-5-cyclopropyl-1H-pyrazole-4-carbonyl}-[(S)-3-(2-trifluoromethylphenyl)]pyrrolidine hydrochloride]
CC(=O)NC1CN(C(=O)N2CCC(n3ncc(C(=O)N4CC[C@@H](c5ccccc5C(F)(F)F)C4)c3C3CC3)CC2)C1 [Example 45, 1-{1-[1-(3-acetylaminoazetidine-1-carbonyl)piperidin-4-yl]-5-cyclopropyl-1H-pyrazole-4-carbonyl}-[(S)-3-(2-trifluoromethylphenyl)]pyrrolidine]
CC(=O)NC1CCN(C(=O)N2CCC(n3ncc(C(=O)N4CC[C@@H](c5ccccc5C(F)(F)F)C4)c3C3CC3)CC2)C1 (stereo partly drawn) [Example 40, 1-{1-[1-(3-acetylaminopyrrolidine-1-carbonyl)piperidin-4-yl]-5-cyclopropyl-1H-pyrazole-4-carbonyl}-[(S)-3-(2-trifluoromethylphenyl)]pyrrolidine]
O=C(CCCO)N1CCC(n2ncc(C(=O)N3CC[C@@H](c4ccccc4C(F)(F)F)C3)c2C2CC2)CC1 [Example 80, 1-{5-cyclopropyl-1-[1-(4-hydroxybutyryl)piperidin-4-yl]-1H-pyrazole-4-carbonyl}-[(S)-3-(2-trifluoromethylphenyl)]pyrrolidine]
CS(=O)(=O)Nc1ccc(N2CCC(n3ncc(C(=O)N4CCC(c5ccccc5C(F)(F)F)C4)c3C3CC3)CC2)cc1 (centres unmarked) [Example 171, 1-{5-cyclopropyl-1-[1-(4-methanesulfonylaminophenyl)piperidin-4-yl]-1H-pyrazole-4-carbonyl}-3-(2-trifluoromethylphenyl)pyrrolidine]
O=C(Nc1ccccc1F)N1CCC(n2ncc(C(=O)N3CCC(c4cccnc4Cl)C3)c2C2CC2)CC1 (centres unmarked) [Example 137, 3-(2-chloropyridin-3-yl)-1-{5-cyclopropyl-1-[1-(2-fluorophenylcarbamoyl)piperidin-4-yl]-1H-pyrazole-4-carbonyl}pyrrolidine]
CC(=O)N1CCC(OC(=O)N2CCC(n3ncc(C(=O)N4CC[C@@H](c5ccccc5C(F)(F)F)C4)c3C3CC3)CC2)CC1 [Example 63, 1-{1-[1-(1-acetylpiperidin-4-yl-oxycarbonyl)piperidin-4-yl]-5-cyclopropyl-1H-pyrazole-4-carbonyl}-[(S)-3-(2-trifluoromethylphenyl)]pyrrolidine]
O=C(c1cnn([C@H]2CC[C@H](c3nnn[nH]3)CC2)c1C1CC1)N1CC[C@@H](c2ccccc2C(F)(F)F)C1 [Example 132, 1-{5-cyclopropyl-1-[trans-4-(1H-tetrazol-5-yl)cyclohexyl]-1H-pyrazole-4-carbonyl}-[(S)-3-(2-trifluoromethylphenyl)]pyrrolidine]
O=C(c1cnn(C2CCN(c3ncccc3Cl)CC2)c1C1CC1)N1CCC(c2cccnc2)C1 (centres unmarked) [Example 187, 1-{1-[1-(3-chloropyridin-2-yl)piperidin-4-yl]-5-cyclopropyl-1H-pyrazole-4-carbonyl}-3-(pyridin-3-yl)pyrrolidine]
NCC(=O)N1CCC(n2ncc(C(=O)N3CC[C@@H](c4ccccc4C(F)(F)F)C3)c2C2CC2)CC1 [Example 77, 1-{1-[1-(2-aminoacetyl)piperidin-4-yl]-5-cyclopropyl-1H-pyrazole-4-carbonyl}-[(S)-3-(2-trifluoromethylphenyl)]pyrrolidine hydrochloride]
O=C(Nc1ccc(F)cc1F)N1CCC(n2ncc(C(=O)N3CCC(c4ccccc4Cl)C3)c2C2CC2)CC1 (centres unmarked) [Example 136, 3-(2-chlorophenyl)-1-{5-cyclopropyl-1-[1-(2,4-difluorophenylcarbamoyl)piperidin-4-yl]-1H-pyrazole-4-carbonyl}pyrrolidine]
O=C(c1cnn(C2CCN(c3n[nH]c(C(F)(F)F)n3)CC2)c1C1CC1)N1CC[C@@H](c2ccccc2C(F)(F)F)C1 [Example 120, 1-{5-cyclopropyl-1-[1-(5-trifluoromethyl-4H-[1,2,4]triazol-3-yl)piperidin-4-yl]-1H-pyrazole-4-carbonyl}-[(S)-3-(2-trifluoromethylphenyl)]pyrrolidine hydrochloride]
O=C(c1cnn(C2CCNCC2)c1C1CC1)N1CC[C@@H](c2ccccc2C(F)(F)F)C1 [Example 2, 1-[5-cyclopropyl-1-(piperidin-4-yl)-1H-pyrazole-4-carbonyl]-[(S)-3-(2-trifluoromethylphenyl)]pyrrolidine hydrochloride]
CN/C(=N\C#N)N1CCC(n2ncc(C(=O)N3CC[C@@H](c4ccccc4C(F)(F)F)C3)c2C2CC2)CC1 [Example 111, 1-(1-{1-[cyanoimino(methylamino)methyl]piperidin-4-yl}-5-cyclopropyl-1H-pyrazole-4-carbonyl)-[(S)-3-(2-trifluoromethylphenyl)]pyrrolidine]

— patent US20100010219A1, “METHOD FOR PRODUCING PYRROLIDINE COMPOUND” (JAPAN TOBACCO INC., priority 2006, published 2010)
